Experimental data: ChEMBL document CHEMBL5584330, “Small Molecular Inhibitors That Target ATM for Drug Discovery: Current Research and Potential Prospective” (J Med Chem, 2024)

Columns and labels:
SW480 = test: Antiproliferative activity against human SW480 cells assessed as reduction in cell viability incubated for 72 hrs by MTT assay; format: functional, cell-based; details: SW480, 72 h
U2OS [1] = test: cells; details: Homo sapiens
[2] = target: T1, Serine-protein kinase ATM (Homo sapiens, UniProt Q13315); test: Binding affinity to ATM (unknown origin) assessed as inhibition constant
[3] = target: Phosphatidylinositol 3-kinase catalytic subunit type 3 (Homo sapiens, UniProt Q8NEB9); test: Binding affinity to Vps34 (unknown origin) assessed as inhibition constant
U2OS [4] = test: Cytotoxicity against human U2OS cells assessed as reduction in cell viability incubated for 48 hrs by MTT assay; format: functional, cell-based
[5] = target: Phosphatidylinositol 4,5-bisphosphate 3-kinase catalytic subunit alpha isoform (Homo sapiens, UniProt P42336); test: Inhibition of PI3K alpha (unknown origin)
[6] = target: T1, Serine-protein kinase ATM; test: Inhibition of ATM (unknown origin)
[7] = target: Serine/threonine-protein kinase mTOR (Homo sapiens, UniProt P42345); test: Inhibition of mTOR (unknown origin)
[8] = Half life in human liver microsomes; format: ADME, Microsome
[9] = Inhibition of PI3K (unknown origin); set-up: species or system Homo sapiens
MCF7 = test: cells; details: Homo sapiens
Description: Antiproliferative activity against human MCF7 cells assessed as reduction in cell growth

T1 sequence (Q13315 whole entry): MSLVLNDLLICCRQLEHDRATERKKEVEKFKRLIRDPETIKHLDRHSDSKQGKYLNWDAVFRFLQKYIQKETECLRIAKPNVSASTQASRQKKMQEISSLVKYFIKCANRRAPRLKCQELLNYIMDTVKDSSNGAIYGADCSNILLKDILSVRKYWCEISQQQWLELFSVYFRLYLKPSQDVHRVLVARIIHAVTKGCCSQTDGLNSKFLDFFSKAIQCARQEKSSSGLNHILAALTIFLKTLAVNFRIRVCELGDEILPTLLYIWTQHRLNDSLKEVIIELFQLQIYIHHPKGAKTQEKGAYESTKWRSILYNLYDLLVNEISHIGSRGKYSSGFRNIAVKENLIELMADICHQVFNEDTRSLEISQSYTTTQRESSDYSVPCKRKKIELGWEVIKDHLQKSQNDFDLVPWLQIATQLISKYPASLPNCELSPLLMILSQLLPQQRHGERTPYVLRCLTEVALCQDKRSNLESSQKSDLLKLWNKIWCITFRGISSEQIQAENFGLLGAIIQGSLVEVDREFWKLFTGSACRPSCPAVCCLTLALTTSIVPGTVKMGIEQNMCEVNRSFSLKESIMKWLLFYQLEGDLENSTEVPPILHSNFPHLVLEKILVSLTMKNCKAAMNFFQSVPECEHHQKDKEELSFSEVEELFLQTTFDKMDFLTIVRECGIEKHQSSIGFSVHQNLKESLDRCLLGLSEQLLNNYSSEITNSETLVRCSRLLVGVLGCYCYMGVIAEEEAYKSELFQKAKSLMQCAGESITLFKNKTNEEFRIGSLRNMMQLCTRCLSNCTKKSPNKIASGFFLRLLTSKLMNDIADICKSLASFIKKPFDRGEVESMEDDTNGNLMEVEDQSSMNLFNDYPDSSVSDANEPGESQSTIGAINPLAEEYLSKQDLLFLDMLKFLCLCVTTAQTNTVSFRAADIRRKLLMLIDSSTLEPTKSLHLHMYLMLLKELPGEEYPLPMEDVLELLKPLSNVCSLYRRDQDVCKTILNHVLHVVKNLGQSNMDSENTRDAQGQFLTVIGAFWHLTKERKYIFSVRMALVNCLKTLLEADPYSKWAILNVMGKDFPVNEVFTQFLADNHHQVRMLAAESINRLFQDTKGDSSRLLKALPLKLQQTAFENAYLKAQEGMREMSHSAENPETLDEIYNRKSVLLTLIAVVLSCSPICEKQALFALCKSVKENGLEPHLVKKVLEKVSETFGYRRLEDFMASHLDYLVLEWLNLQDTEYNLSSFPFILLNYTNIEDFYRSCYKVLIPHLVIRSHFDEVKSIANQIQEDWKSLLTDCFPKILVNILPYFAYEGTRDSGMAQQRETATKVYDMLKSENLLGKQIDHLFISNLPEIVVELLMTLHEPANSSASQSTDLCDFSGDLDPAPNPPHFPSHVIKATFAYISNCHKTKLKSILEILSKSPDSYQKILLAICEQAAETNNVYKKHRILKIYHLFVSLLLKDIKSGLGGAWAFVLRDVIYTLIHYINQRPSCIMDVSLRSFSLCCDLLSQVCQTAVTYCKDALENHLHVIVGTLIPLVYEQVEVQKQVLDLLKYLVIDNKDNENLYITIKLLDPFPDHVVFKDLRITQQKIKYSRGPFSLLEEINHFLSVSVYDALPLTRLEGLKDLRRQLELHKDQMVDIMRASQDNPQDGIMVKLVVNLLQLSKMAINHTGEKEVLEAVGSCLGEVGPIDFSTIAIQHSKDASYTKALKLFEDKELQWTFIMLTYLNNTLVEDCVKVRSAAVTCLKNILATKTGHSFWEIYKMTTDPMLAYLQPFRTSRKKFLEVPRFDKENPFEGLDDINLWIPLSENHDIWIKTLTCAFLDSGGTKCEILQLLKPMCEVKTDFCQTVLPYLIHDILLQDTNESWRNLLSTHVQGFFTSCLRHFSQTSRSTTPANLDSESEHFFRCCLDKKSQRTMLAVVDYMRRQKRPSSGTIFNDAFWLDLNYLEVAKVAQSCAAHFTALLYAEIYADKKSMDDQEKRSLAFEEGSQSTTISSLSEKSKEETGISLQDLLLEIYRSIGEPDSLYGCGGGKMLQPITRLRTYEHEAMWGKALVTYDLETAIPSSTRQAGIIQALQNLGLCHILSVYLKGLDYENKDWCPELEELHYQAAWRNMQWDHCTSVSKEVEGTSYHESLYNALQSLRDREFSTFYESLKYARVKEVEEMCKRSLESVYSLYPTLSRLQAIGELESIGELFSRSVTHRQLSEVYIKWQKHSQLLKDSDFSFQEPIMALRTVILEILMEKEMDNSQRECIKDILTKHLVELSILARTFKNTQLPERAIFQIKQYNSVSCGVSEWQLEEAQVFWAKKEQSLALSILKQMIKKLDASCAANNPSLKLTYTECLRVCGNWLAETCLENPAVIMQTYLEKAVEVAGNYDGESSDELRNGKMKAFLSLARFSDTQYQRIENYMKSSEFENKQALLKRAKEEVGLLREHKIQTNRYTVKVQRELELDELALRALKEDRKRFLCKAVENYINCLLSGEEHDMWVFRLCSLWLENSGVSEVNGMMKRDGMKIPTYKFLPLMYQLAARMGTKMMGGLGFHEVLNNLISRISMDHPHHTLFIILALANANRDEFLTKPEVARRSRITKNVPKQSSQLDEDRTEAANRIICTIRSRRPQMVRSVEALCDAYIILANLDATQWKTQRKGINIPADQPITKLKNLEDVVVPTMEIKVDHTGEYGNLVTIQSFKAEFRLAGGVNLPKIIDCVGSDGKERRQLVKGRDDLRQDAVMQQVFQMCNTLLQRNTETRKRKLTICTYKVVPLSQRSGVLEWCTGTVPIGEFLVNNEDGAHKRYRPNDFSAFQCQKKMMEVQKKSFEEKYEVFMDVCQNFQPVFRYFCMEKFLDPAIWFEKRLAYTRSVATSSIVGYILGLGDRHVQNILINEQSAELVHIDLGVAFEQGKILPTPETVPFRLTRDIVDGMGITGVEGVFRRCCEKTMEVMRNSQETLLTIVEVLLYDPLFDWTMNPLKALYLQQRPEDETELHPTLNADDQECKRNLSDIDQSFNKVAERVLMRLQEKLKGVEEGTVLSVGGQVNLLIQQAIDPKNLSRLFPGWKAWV
Phosphatidylinositol 3-kinase catalytic subunit type 3, sequence (Q8NEB9 whole entry): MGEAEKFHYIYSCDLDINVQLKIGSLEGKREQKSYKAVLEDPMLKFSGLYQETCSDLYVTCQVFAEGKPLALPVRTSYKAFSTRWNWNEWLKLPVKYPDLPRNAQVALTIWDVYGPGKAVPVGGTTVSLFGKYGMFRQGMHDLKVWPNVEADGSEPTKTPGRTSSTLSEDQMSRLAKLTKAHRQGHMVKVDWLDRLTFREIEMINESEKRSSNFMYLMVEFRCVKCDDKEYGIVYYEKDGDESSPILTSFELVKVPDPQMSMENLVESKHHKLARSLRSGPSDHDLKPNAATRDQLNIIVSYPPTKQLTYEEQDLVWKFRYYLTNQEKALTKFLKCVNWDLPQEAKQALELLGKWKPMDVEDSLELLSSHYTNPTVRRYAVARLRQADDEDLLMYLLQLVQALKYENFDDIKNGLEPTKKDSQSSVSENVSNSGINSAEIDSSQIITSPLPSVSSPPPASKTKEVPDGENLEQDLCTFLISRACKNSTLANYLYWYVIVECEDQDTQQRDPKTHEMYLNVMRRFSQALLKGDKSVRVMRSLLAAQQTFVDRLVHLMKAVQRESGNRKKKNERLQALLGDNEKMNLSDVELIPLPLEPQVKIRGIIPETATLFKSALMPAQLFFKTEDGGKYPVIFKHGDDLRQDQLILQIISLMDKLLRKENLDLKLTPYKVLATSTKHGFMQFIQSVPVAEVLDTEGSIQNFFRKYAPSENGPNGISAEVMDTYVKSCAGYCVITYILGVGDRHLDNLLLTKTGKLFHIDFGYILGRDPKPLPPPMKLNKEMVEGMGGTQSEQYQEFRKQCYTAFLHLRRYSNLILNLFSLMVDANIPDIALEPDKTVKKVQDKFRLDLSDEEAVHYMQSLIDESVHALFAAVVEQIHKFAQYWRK
Phosphatidylinositol 4,5-bisphosphate 3-kinase catalytic subunit alpha isoform, sequence (P42336 whole entry, canonical isoform): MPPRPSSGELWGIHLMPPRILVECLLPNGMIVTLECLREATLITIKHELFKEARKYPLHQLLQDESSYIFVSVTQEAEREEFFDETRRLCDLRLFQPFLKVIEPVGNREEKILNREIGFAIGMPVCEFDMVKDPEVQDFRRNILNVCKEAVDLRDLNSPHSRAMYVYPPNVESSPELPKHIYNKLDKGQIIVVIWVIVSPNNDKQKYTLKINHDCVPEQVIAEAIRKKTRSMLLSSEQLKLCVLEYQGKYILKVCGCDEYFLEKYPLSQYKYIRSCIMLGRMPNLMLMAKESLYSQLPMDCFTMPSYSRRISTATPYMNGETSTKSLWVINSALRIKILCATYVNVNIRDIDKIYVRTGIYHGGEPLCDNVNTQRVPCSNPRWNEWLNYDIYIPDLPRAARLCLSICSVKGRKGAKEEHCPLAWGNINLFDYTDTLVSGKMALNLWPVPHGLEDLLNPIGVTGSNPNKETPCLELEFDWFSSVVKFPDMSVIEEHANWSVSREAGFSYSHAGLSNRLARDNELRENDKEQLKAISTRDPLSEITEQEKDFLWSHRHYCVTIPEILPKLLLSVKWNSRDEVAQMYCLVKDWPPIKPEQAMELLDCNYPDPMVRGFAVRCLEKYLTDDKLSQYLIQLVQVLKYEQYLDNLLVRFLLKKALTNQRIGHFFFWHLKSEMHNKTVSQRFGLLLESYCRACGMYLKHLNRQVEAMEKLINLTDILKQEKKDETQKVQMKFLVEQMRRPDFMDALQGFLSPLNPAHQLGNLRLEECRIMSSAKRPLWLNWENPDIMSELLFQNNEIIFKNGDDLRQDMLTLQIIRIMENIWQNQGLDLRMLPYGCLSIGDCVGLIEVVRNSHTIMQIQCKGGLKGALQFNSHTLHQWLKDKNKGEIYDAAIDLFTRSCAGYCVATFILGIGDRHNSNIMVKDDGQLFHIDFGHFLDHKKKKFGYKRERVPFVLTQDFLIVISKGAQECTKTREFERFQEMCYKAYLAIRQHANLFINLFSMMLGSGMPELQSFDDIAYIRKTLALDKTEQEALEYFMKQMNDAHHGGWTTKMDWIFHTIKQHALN

| IC50 (U2OS [1]) | Ki [2] | Ki [3] | SMILES | further results |
| --- | --- | --- | --- | --- |
| – | – | – | CNC(=O)c1ccc(-c2cnc3cnc(-c4ccccc4)cn23)cc1 | IC50 (SW480): 6200 nM |
| 90 nM | 0.4 nM | 6 nM | C[C@H]1CCN(c2nc(N3CCOCC3)cc(=O)[nH]2)[C@@H]1Cc1ccccc1 | – |
| – | – | – | COc1ccc2c(c1)Cc1cccc(-c3cc(=O)cc(N4CCOCC4)o3)c1S2 | IC50 (U2OS [4]): 910 nM; IC50 [5]: 5 nM |
| – | – | – | C=C1C(=O)OCC1C(=O)N1Cc2cc3ccccc3nc2C1 (configuration not stated) | IC50 [6]: 600 nM; IC50 [7]: 7000 nM |
| – | – | – | CC(C)NC(=O)N(C)c1cnc2ccc(-c3ccc(OCCCN4CCCCC4)nc3)cc2n1 | half-life [8]: 12.8 h |
| – | – | – | C[C@@H]1CN(CC(=O)Nc2ccc3c(c2)Cc2cccc(-c4cc(=O)cc(N5CCOCC5)o4)c2S3)C[C@H](C)O1 | IC50 [9]: 6 nM |
| – | – | – | COc1cc2ncnc(-n3cc(-c4ccccn4)nc3N)c2cc1OC | IC50 (MCF7): 370 nM |
| 300 nM | 2 nM | 90 nM | O=c1cc(N2CCOCC2)cc(N2C[C@@H]3C[C@@H]3[C@H]2Cc2ccccc2)[nH]1 | – |
| – | – | – | COCCOc1cc2c(-n3cc(-c4ccccn4)nc3N)ncnc2cc1OC | IC50 (MCF7): 1200 nM |
| 3400 nM | 6 nM | 9 nM | O=c1cc(N2CCOCC2)cc(N2CC3CC3[C@H]2Cc2ccccc2)[nH]1 (some centres not stated) | – |
| – | – | – | CN1CCN(CCC(=O)Nc2ccc3c(c2)Sc2cccc(-c4cc(=O)cc(N5CCOCC5)o4)c2S3)CC1 | IC50 [5]: 3 nM |
| 230 nM | 1 nM | 50 nM | O=c1cc(N2CCOCC2)cc(N2CCCCC[C@H]2Cc2ccccc2)[nH]1 | – |
